What all share (test): biochemical
For experiment [1], the target named is T1, panel of 374 wild-type kinases (Homo sapiens, UniProt Q86Z02).
T1 construct: purchased Reaction Biology Corporation
As to conditions: read-out: % Enzyme Activity (relative to DMSO controls), HIPK1.

For experiment [2], the target named is T2, panel of 374 wild-type kinases (Homo sapiens, UniProt Q15349).
T2 construct: purchased Reaction Biology Corporation
To be noted: read-out: % Enzyme Activity (relative to DMSO controls), kinase RSK3.

For experiment [3], the target named is T3, panel of 374 wild-type kinases (Homo sapiens, UniProt Q96S53).
T3 construct: purchased Reaction Biology Corporation
To be noted: read-out: % Enzyme Activity (relative to DMSO controls), kinase TESK2.

In experiment [4] the target is T4, panel of 374 wild-type kinases (Homo sapiens, UniProt Q13557).
T4 construct: purchased Reaction Biology Corporation
As to conditions: read-out: % Enzyme Activity (relative to DMSO controls), CAMK2d.

Experiment [5] addresses T5, panel of 374 wild-type kinases (Homo sapiens, UniProt Q02750).
T5 construct: purchased Reaction Biology Corporation
As to conditions: read-out: % Enzyme Activity (relative to DMSO controls), MEK1.

Experiment [6] concerns the target T6, panel of 374 wild-type kinases (Homo sapiens, UniProt O14965).
T6 construct: purchased Reaction Biology Corporation
T6 sequence (O14965 1-403): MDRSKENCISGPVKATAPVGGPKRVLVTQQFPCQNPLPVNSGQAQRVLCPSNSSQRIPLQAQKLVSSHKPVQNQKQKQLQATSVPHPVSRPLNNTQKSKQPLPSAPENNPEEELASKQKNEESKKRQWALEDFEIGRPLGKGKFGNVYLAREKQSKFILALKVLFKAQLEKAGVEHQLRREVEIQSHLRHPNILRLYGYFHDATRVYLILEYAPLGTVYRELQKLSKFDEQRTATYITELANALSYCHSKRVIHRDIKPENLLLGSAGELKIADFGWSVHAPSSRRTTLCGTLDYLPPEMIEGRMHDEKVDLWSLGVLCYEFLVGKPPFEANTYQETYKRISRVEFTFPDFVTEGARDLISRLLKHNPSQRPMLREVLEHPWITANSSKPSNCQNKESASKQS
To be noted: read-out: % Enzyme Activity (relative to DMSO controls), Aurora A.

Experiment [7] has as its target T7, panel of 374 wild-type kinases (Homo sapiens, UniProt Q9UIK4).
T7 construct: purchased Reaction Biology Corporation
To be noted: read-out: % Enzyme Activity (relative to DMSO controls), DAPK2.

Experiment [8] addresses T8, panel of 374 wild-type kinases (Homo sapiens, UniProt Q8TDX7).
T8 construct: purchased Reaction Biology Corporation
As to conditions: read-out: % Enzyme Activity (relative to DMSO controls), NEK7.

For experiment [9], the target named is T9, panel of 374 wild-type kinases (Homo sapiens, UniProt P45984).
T9 construct: purchased Reaction Biology Corporation
As to conditions: JNK2, read-out: % Enzyme Activity (relative to DMSO controls).

Experiment [10] addresses T10, panel of 374 wild-type kinases (Homo sapiens, UniProt P49840).
T10 construct: purchased Reaction Biology Corporation
As to conditions: read-out: % Enzyme Activity (relative to DMSO controls), GSK3a.

For experiment [11], the target named is T11, panel of 374 wild-type kinases (Homo sapiens, UniProt Q9BYP7).
T11 construct: purchased Reaction Biology Corporation
As to conditions: read-out: % Enzyme Activity (relative to DMSO controls), kinase WNK3.

In experiment [12] the target is T12, panel of 374 wild-type kinases (Homo sapiens, UniProt Q9UEW8).
T12 construct: purchased Reaction Biology Corporation
As to conditions: kinase STK39/STLK3, read-out: % Enzyme Activity (relative to DMSO controls).

The target in experiment [13] is T13, panel of 374 wild-type kinases (Homo sapiens, UniProt P06241).
T13 construct: purchased Reaction Biology Corporation
As to conditions: read-out: % Enzyme Activity (relative to DMSO controls), FYN.

Experiment [14] concerns the target T14, panel of 374 wild-type kinases (Homo sapiens, UniProt Q8IWQ3).
T14 construct: purchased Reaction Biology Corporation
T14 sequence (Q8IWQ3 1-736): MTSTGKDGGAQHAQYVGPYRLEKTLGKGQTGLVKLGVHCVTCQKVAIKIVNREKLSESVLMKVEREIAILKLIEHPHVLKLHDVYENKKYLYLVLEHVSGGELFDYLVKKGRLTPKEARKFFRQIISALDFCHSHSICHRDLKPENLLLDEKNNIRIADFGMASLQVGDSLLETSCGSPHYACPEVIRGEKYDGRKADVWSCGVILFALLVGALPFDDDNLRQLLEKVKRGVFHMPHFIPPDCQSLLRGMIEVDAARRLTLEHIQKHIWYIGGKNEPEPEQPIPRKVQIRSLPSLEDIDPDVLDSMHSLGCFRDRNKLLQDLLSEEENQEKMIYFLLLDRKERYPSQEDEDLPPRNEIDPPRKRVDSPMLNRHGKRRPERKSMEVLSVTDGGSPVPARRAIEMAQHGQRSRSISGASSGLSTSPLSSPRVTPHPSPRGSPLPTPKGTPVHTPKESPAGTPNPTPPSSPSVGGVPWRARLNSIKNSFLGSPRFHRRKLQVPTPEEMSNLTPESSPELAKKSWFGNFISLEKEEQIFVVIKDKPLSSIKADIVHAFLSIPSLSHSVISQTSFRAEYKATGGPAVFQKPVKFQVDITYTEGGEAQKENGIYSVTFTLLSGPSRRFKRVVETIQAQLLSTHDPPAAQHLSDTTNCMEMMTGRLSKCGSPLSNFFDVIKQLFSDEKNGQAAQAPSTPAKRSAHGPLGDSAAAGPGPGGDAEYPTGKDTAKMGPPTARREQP
As to conditions: read-out: % Enzyme Activity (relative to DMSO controls), BRSK2.

The target in experiment [15] is T15, panel of 374 wild-type kinases (Homo sapiens, UniProt Q9HAZ1).
T15 construct: purchased Reaction Biology Corporation
As to conditions: read-out: % Enzyme Activity (relative to DMSO controls), CLK4.

Experiment [16] addresses T16, panel of 374 wild-type kinases (Homo sapiens, UniProt P35968).
T16 construct: purchased Reaction Biology Corporation
To be noted: read-out: % Enzyme Activity (relative to DMSO controls), KDR/VEGFR2.

The source of these data is patent US20240246942A1, “KINASE INHIBITORS FOR THE TREATMENT OF NEURODEGENERATIVE DISEASES” (priority 2020, published 2024).

T1 sequence (Q86Z02 whole entry): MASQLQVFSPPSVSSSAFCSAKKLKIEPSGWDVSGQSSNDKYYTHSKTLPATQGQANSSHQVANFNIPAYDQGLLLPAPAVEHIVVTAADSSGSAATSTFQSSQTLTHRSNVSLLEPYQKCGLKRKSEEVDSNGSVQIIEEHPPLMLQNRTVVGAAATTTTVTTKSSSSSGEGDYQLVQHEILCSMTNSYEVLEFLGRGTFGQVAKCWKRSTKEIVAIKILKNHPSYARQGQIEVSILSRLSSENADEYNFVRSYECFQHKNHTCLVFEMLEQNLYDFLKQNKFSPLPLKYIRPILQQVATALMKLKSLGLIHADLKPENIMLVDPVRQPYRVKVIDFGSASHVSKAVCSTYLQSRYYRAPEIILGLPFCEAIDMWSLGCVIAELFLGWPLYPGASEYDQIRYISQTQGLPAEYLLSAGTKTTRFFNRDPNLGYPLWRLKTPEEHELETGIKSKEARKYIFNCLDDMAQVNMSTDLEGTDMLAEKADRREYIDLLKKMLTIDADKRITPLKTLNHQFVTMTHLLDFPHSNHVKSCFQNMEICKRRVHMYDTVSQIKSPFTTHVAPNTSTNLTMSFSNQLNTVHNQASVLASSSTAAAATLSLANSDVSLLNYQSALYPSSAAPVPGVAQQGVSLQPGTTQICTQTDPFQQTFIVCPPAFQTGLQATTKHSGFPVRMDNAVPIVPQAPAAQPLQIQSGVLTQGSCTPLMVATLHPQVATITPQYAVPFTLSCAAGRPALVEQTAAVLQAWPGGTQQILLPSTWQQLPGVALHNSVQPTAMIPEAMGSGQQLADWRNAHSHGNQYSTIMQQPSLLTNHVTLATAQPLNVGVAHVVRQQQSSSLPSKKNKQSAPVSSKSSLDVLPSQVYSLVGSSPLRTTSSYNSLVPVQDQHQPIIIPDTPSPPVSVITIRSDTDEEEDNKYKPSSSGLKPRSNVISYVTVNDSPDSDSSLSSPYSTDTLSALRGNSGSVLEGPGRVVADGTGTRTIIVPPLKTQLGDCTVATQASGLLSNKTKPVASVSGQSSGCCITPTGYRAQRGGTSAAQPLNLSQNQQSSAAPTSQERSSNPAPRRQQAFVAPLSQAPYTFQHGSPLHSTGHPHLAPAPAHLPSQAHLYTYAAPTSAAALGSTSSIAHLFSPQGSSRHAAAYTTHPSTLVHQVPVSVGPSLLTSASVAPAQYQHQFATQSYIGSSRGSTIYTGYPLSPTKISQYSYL
T15 sequence (Q9HAZ1 whole entry): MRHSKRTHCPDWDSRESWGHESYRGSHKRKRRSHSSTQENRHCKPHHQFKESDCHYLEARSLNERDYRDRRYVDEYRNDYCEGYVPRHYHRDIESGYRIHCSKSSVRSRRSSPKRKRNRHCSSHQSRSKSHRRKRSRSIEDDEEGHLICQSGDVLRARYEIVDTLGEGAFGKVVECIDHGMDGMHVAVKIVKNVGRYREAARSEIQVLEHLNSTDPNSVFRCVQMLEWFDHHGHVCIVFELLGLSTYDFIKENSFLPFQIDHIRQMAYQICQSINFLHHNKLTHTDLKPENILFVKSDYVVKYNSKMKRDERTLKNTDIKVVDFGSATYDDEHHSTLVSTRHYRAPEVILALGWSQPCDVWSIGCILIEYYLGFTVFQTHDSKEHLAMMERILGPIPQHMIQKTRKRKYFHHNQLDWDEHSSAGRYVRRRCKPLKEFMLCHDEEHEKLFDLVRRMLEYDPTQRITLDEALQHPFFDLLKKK
T16 sequence (P35968 20-1356): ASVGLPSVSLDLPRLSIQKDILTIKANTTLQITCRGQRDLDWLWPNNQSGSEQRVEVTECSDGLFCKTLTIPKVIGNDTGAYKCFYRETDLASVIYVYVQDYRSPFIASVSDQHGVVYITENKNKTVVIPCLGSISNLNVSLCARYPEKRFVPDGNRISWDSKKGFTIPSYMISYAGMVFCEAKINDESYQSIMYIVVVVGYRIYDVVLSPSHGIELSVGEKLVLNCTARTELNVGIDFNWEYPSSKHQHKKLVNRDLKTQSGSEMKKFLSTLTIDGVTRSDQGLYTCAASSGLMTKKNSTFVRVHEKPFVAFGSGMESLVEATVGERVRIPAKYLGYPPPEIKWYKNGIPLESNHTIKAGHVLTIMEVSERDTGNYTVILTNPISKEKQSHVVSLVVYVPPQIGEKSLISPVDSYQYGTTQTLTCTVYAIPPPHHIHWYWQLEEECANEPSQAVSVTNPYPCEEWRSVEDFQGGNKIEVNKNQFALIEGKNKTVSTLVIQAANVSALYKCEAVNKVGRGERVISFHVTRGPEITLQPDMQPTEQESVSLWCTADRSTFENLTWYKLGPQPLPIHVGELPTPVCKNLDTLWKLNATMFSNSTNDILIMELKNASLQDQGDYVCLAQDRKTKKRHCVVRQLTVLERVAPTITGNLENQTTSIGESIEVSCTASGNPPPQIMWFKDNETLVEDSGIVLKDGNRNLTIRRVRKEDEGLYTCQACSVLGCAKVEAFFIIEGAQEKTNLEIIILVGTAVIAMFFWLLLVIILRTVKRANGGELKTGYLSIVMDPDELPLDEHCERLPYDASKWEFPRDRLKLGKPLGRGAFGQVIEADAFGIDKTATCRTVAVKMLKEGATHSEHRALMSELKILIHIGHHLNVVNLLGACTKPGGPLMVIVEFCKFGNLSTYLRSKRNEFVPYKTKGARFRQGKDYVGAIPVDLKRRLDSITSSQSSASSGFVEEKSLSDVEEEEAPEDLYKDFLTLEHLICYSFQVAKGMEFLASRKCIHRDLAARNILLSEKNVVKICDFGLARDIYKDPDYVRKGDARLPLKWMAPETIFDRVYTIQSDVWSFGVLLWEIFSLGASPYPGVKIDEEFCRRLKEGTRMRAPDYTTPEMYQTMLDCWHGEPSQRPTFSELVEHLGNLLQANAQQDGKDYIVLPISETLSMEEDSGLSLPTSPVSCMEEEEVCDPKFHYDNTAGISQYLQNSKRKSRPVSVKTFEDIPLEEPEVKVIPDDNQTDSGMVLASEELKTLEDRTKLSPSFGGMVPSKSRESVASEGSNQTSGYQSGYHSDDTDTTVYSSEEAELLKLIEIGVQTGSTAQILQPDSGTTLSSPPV
T13 sequence (P06241 whole entry): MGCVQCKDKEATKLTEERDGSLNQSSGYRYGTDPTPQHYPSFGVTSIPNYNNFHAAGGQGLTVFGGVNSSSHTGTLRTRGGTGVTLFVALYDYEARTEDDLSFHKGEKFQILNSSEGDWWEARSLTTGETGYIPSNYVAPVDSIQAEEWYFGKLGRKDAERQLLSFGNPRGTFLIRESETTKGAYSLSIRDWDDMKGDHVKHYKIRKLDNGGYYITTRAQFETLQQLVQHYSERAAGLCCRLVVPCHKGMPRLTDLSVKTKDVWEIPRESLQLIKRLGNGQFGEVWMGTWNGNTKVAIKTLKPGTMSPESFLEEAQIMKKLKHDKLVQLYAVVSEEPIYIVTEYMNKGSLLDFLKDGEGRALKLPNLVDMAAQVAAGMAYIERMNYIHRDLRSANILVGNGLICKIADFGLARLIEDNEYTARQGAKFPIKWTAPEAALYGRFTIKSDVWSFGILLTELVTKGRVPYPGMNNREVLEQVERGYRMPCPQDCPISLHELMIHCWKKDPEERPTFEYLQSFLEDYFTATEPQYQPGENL
T4 sequence (Q13557 whole entry): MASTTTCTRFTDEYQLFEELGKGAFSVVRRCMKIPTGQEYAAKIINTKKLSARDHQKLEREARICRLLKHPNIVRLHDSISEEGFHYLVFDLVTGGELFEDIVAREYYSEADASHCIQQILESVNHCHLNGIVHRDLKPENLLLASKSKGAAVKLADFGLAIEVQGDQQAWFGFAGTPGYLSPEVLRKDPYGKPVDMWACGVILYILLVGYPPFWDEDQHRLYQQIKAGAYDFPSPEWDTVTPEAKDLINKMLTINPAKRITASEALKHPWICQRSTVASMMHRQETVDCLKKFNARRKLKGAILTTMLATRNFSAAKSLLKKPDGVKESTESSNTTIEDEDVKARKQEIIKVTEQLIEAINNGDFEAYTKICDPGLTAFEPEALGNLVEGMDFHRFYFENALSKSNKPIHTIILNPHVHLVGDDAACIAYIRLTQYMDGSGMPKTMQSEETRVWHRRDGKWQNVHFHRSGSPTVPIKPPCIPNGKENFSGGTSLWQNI
T8 sequence (Q8TDX7 whole entry): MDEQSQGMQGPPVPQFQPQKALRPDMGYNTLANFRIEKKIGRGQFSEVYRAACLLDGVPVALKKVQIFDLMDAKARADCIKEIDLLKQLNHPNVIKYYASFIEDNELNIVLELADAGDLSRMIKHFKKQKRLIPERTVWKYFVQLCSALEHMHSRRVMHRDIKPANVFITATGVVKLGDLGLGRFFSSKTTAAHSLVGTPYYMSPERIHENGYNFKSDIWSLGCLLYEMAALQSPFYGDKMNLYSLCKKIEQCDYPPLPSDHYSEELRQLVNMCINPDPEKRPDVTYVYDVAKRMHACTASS
T7 sequence (Q9UIK4 whole entry): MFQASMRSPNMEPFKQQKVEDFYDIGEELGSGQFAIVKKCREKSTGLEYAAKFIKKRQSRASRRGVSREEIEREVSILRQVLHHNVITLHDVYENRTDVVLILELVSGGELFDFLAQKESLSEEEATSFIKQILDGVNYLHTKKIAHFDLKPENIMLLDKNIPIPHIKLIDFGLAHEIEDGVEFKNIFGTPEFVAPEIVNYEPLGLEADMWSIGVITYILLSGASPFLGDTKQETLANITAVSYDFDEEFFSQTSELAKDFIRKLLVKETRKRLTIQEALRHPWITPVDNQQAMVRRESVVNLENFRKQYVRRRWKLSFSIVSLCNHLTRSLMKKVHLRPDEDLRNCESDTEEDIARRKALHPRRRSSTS

Take `O=C(Nc1cnn(-c2csc(C(=O)NC3COC3)c2)c1)Nc1ccccc1Cl` [Compound 17, 4-(4-(3-(2-chlorophenyl)ureido)-1H-pyrazol-1-yl)-N-(oxetan-3-yl)thiophene-2-carboxamide]: the remaining activity at 5 µM is 96.3% in [1]; 103% in experiment [2]; 93.3% in [3]; 103% in [4]; 104% in [5]; 105% in [6]. Also, the remaining activity at 5 µM in [7] is 103%; in [8], 102%; in [9], 34.1%; in [10], 97.4%; in [11], 99.5%; in [12], 87.5%. Besides, the remaining activity at 5 µM in experiment [13] is 97.8%; in experiment [14], 102%; in experiment [15] it was 66%; in experiment [16], 95.2%.
As for `O=C(Nc1cnn(-c2csc(C(=O)NC3COC3)c2)c1)Nc1c(F)cccc1Cl` [Compound 25, 4-(4-(3-(2-chloro-6-fluorophenyl)ureido)-1H-pyrazol-1-yl)-N-(oxetan-3-yl)thiophene-2-carboxamide], the remaining activity at 5 µM came to 91.7% in experiment [1]; 90.1% in [2]; 80.1% in experiment [3]; 93.5% in experiment [4]; 107% in experiment [5]; 83.1% in experiment [6]. For the same molecule, the remaining activity at 5 µM is 102% in [7]; 88.1% in [8]; 22.7% in experiment [9]; 93.5% in experiment [10]; 91.8% in experiment [11]; 82.3% in [12]. Also, the remaining activity at 5 µM stood at 90.3% in [13], 100% in [14], 93.2% in experiment [15] and 88.3% in [16].
For `Cc1sc(C(=O)NC2COC2)cc1-n1cc(NC(=O)Nc2c(F)cccc2Cl)cn1` [Compound 27, 4-(4-(3-(2-chloro-6-fluorophenyl)ureido)-1H-pyrazol-1-yl)-5-methyl-N-(oxetan-3-yl)thiophene-2-carboxamide], the remaining activity at 10 µM in [1] (10 uM) turned out to be 116%; in experiment [2] (10 uM), 100%; in [3] (10 uM) it was 99.2%; in experiment [4] (10 uM) it was 91.3%; in experiment [5] (10 uM), 95.5%; in experiment [6] (10 uM), 88.4%. The remaining activity at 10 µM was found to be 99.5% in experiment [7] (10 uM); 100% in [8] (10 uM); 51.9% in experiment [9] (10 uM); 128% in experiment [10] (10 uM); 102% in [11] (10 uM); 64.5% in experiment [12] (10 uM). The remaining activity at 10 µM in experiment [13] (10 uM) was 99.8%; in [14] (10 uM), 102%; in experiment [15] (10 uM), 102%; in experiment [16] (10 uM) it was 88.2%.
